For test [1], the system named is Gs-proteins. As to the kind of experiment: Cyclic AMP generation (radio receptor assay). The class given is cell-based. Particulars: human neutrophils; m-3M3FBS 25 μM, histamine 100 μM. On the procedure: (§1) Isolated neutrophils were preincubated with PTX (1 μg/ml) or vehicle for 90 min at 37° C. and stimulated with m-3M3FBS, FMLF, or ATP at concentrations of 25, 1, and 500 μM, respectively. Changes in the excitation ratios at 340 nm/380 nm were monitored. Data are presented as means ±S. E. M. of two independent experiments (A). cAMP levels were determined by a radio receptor assay. Prepared cells were treated with m-3M3FBS (25 μM) or histamine (100 μM) and then lysed with Tris-EDTA. After removing the supernatant, [ 3H] cAMP and protein were added, and the amount of [^3H] cAMP-protein complex was determined. The amount of unlabeled cAMP (in the sample) was then calculated by measuring the protein-bound radioactivity. Data are presented as means ±S. E. M. of two independent experiments (B). […] RGS2-GFP inducible HeLa cells were cultured for 48 h in the absence or in the presence of tetracycline and loaded with fura-2. Cells were treated with histamine (100 μM) or m-3M3FBS (25 μM), and changes in the 340 nm/380 nm ratios were monitored and converted to [Ca^2+]i values. The results shown are representative of three independent experiments (C).

For test [2], the system named is Gq-proteins. As to the kind of experiment: [Ca2+]i in RGS2-GFP inducible HeLa cells. The class given is cell-based, human. Particulars: histamine 100 μM, m-3M3FBS 25 μM. The method, then:
as §1
pRevTRE vector containing the cDNA of rat RGS2-GFP was transfected into Hela Tet-off cells using Lipofectamine. Selection was performed in DMEM supplemented with 2 μg/ml of tetracycline and 500 μg/ml of hygromycin B. Two weeks later, several well-isolated colonies were picked out and analyzed by western blotting to determine the expression level of RGS2 in the absence of tetracycline. For these experiments, HeLa cells were cultured for 48 h in the absence or in the presence of tetracycline.
(§2) Freshly prepared human neutrophils were incubated in serum free RPMI 1640 medium with 3 μM of fura-2/AM at 37° C. for 30 min with continuous stirring. After washing with serum free RPMI 1640 medium, the cells were suspended in serum free RPMI containing 250 μM of sulfinpyrazone to prevent dye leakage. About 2×10^6 cells were suspended in Ca^2+ free Locke's solution (158.4 mM NaCl, 5.6 mM KCl, 1.2 mM MgCl2, 5 mM HEPES pH 7.3, 10 mM glucose, and 0.2 mM EGTA) for each measurement. Changes in the fluorescence ratio were measured at an emission wavelength of 500 nm for dual excitation wavelengths at 340 nm and 380 nm. The calibration of the fluorescence ratio versus [Ca^2+]i was performed as described by Grynkiewicz (Grynkiewicz et al., 1985).

Test [3] has as its system PTX-sensitive Gi-proteins. As to the kind of experiment: PTX sensitivity of [Ca2+]i increase in neutrophils. The conditions noted are these: fMLF 1 μM. The class given is cell-based, human. On the procedure:
Isolated neutrophils were preincubated with PTX (1 μg/ml) or vehicle for 90 min at 37° C. and stimulated with m-3M3FBS, FMLF, or ATP at concentrations of 25, 1, and 500 μM, respectively. Changes in the excitation ratios at 340 nm/380 nm were monitored. Data are presented as means ±S. E. M. of two independent experiments (A). cAMP levels were determined by a radio receptor assay. Prepared cells were treated with m-3M3FBS (25 μM) or histamine (100 μM) and then lysed with Tris-EDTA. After removing the supernatant, [ 3H] cAMP and protein were added, and the amount of [^3H] cAMP-protein complex was determined. The amount of unlabeled cAMP (in the sample) was then calculated by measuring the protein-bound radioactivity. Data are presented as means ±S. E. M. of two independent experiments (B). RGS2-GFP inducible HeLa cells were cultured for 48 h in the absence or in the presence of tetracycline, and the induction of RGS2-GFP was confirmed by Western blot analysis using anti-GFP antibody (C). RGS2-GFP inducible HeLa cells were cultured for 48 h in the absence or in the presence of tetracycline and loaded with fura-2. Cells were treated with histamine (100 μM) or m-3M3FBS (25 μM), and changes in the 340 nm/380 nm ratios were monitored and converted to [Ca^2+]i values. The results shown are representative of three independent experiments (C).
as §2

Test [4] relates to human neutrophils. Put plainly: [Ca2+]i measurement with fura-2 in neutrophils. In kind it is cell-based. The conditions noted are these: for effect on calcium signal induced by m-3M3FBS: pretreatment with 4 μM, m-3M3FBS 25 μM. On the procedure: Fura-2-loaded neutrophils were stimulated with m-3M3FBS or o-3M3FBS at 25 μM in extracellular calcium containing 2 mM or extracellular free calcium conditions. The results shown are representative of three independent experiments (A). Prepared neutrophils were loaded with fura-2 and then stimulated with 25 μM of m-3M3FBS in the absence or in the presence of 4 μM of U-73122 or U-73343 (B). Changes in 340 nm/380 nm excitation ratio were monitored, and converted to [Ca^2+]i levels. Data are presented as means ±S. E. M. of three independent experiments.
as §2

For the molecule `NCCc1c[nH]cn1` [histamine, reference compound], the “intracellular cAMP level” value in test [1] is “potently induce cAMP production”. Besides, in test [2] (HeLa cells in the presence of tetracycline (RGS2 not induced)), the “[Ca2+]i increase” value is “caused [Ca^2+]i increases”. For the same molecule, the “effect of RGS2 induction on the induced calcium response” value in test [2] (HeLa cells overexpressing RGS2) is listed as “completely blocked”.
Turning to fMLF, in test [3] (PTX 1 μg/ml for 90 min, m-3M3FBS 25 μM), the “effect of PTX preincubation on the induced calcium increase” value is reported as “inhibited”. For the same molecule, in test [3] (neutrophils, without PTX), the “[Ca2+]i increase” value was “induced [Ca^2+]i increase”.
`COc1ccc2c(c1)CC[C@@H]1[C@@H]2CC[C@]2(C)[C@@H](NCCCCCCN3C(=O)CCC3=O)CC[C@@H]12` [U-73343, reference compound]: the “effect on calcium signal induced by m-3M3FBS” value in test [4] is recorded as “no effect”.
Take `COc1ccc2c(c1)CC[C@@H]1[C@@H]2CC[C@]2(C)[C@@H](NCCCCCCN3C(=O)C=CC3=O)CC[C@@H]12` [U-73122, reference compound]: the “effect on m-3M3FBS-induced calcium signal” value in test [4] (preincubation in the presence of extracellular calcium, data not shown) is “completely blocked”. The “effect on calcium signal induced by m-3M3FBS” value in test [4] was “complete inhibition”.

These data come from patent US20040220268A1, “Compound that directly stimulates phospholipase C activity” (priority 2003, published 2004).
